“And” between values parts separate entries of the source, which are not always exact repeats. Equal values may be shown once. Read-outs that look alike come from different tables or passages of the source.
What was measured:
hMC3-R = target: T1, hMC3-R; test: Competitive inhibition assay using [I125]-NDP-α-MSH, hMC3-R membranes; format: binding, human; settings: read-out: Ki (nM) (NDP-α-MSH) MC3-R
T1 construct: expressed in transfected cells; host or cells: HEK-293
In short: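 Membranes from HEK-293 cells expressing hMC3-R, hMC4-R or hMC5-R, or from mouse B-16 melanoma cells (MC1-R), with 0.2–0.4 nM [125I]-NDP-α-MSH in 50 mM HEPES pH 7.2 with Mg2+, Ca2+, K+. Test compound typically 1 μM; 90 min, room temperature; filtration, gamma counting. Percent inhibition vs specific binding (1 μM α-MSH), triplicate mean, negatives as 0%.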

hMC4-R [1] = target: T2, hMC4-R; test: Competitive inhibition assay using [I125]-NDP-α-MSH, hMC4-R membranes; format: binding, human
T2 construct: expressed in transfected cells; host or cells: HEK-293

hMC4-R [2] = test system: T2, hMC4-R; format: binding, human; settings: for Inhibition at 1 μM (AgRP) MC4-R: 1 μM compound
In short: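 Membranes from hMC4-R-expressing cells incubated 1 h at 37 °C with 0.2 nM [I^125]-AgRP (83-132) and increasing compound in 25 mM HEPES pH 7.5, 100 mM NaCl, 2 mM CaCl2, 2 mM MgCl2, 0.3 mM 1,10-phenanthroline, 0.5% BSA. Filtration, gamma counting; specific binding kept ≤10% of added counts.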

hMC4-R [3] = test system: T2, hMC4-R; test: cAMP functional assay in HEK-293 cells expressing MC4-R (agonist, neutral antagonist/Schild); format: cell-based, human; settings: for intrinsic activity at MC4-R: NDP-α-MSH maximal stimulation = 1.0; for pA2 value at MC4-R: Schild plot vs NDP-α-MSH; for functional status at MC4-R: mostly at 1 μM
In short: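 Cells in EBSS/HEPES pH 7.5 with 0.3 mM IBMX, exposed to compound (0.05-5000 nM, 1% DMSO) for 1 h at 37 °C; cAMP by EIA, EC50 by nonlinear regression. Antagonism: 30 min compound pre-incubation, then 1 nM NDP-α-MSH for 1 h; Schild analysis over 0.005-5000 nM agonist gives pA2.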

[4] = MC4-R membranes, Table 1, read-out: Ki (nM) I125-NPD-α-MSH
[5] = read-out: Ki (nM) (NDP-α-MSH) MC4-R
[6] = MC4-R membranes, Table 1, read-out: Ki (nM) I125-AgRP

SMILES | Ki (hMC3-R) [nM] | Ki (hMC4-R [1]; [4]) [nM] | Ki (hMC4-R [1]; [5]) [nM] | Inhibition at 1 μM (AgRP) MC4-R (hMC4-R [2]) [%] | Ki (hMC4-R [2]; [6]) [nM] | Ki (hMC4-R [2]; read-out: Ki (nM) (AgRP) MC4-R) | functional status (pAg, Ag, Antag, Inactive) (hMC4-R [3]; MC4-R, Table 1) | intrinsic activity at MC4-R (hMC4-R [3]) | pA2 value at MC4-R (hMC4-R [3]) | functional status at MC4-R (hMC4-R [3]; cAMP assay) | attenuation of binding of α-MSH and AgRP to MC4-R (hMC4-R [1]; both ligands (NDP-α-MSH and AgRP), summary) | EC50 (hMC4-R [3]; MC4-R, Table 1, read-out: EC50) [nM] | EC50 (hMC4-R [3]; cAMP assay, read-out: EC50 (nM) at MC4-R) [nM]
CC(C)C[C@@H]1CN(C(=O)[C@H](N)Cc2ccc(Cl)cc2Cl)[C@@H](CCCNC(=N)N)CN1CCc1ccc2ccccc2c1 [Example 4, N-{3-[1-[2(R)-Amino-3-(2,4-dichloro-phenyl)-propionyl]-5(R)-isobutyl-4-(2-naphthalen-2-yl-ethyl)-piperazin-2(S)-yl]-propyl}-guanidine] | 87 | 5 | 5 | 100 | 6 | 6 | Antag (“Antag” means antagonist) | no intrinsic activity | 7.7 | antagonist |  |  | 
CC(=O)N[C@H](Cc1ccc(C)cc1C)C(=O)N1C[C@@H](C)N(CCc2ccc3ccccc3c2)C[C@@H]1CCCNC(=N)N [Example 26, N-{1(R)-(2,4-Dimethyl-benzyl)-2-[2(S)-(3-guanidino-propyl)-5(R)-methyl-4-(2-naphthalen-2-yl-ethyl)-piperazin-1-yl]-2-oxo-ethyl}-acetamide] | 74 | 1 | 1 | 100 | 3 | 0.18 | Antag (“Antag” means antagonist) | no intrinsic activity | 8.3 | antagonist |  |  | 
Cc1ccc(C[C@@H](N)C(=O)N2C[C@@H](C)N(CCc3ccc4ccccc4c3)C[C@@H]2CCCNC(=N)N)c(C)c1 [Example 28, N-{3-[1-[2(R)-Amino-3-(2,4-dimethyl-phenyl)-propionyl]-5(R)-methyl-4-(2-naphthalen-2-yl-ethyl)-piperazin-2(S)-yl]-propyl}-guanidine] | 167 |  |  | 100 | 3 | 3 | pAg (“pAg” means partial agonist) | 0.16 and 0.2 |  |  | attenuate the binding of both α-MSH and AgRP to MC4-R | 390 | 321

Source: patent US20090076029A1 (Palatin Technologies, Inc., priority 2007, published 2009)
